Results on eight molecules are retold here after article PMC8192493 (Journal of medicinal chemistry, 2021).

The subject of experiment [1] is iron uptake genes isdB, sfaA, sbnC, MW0695 in MRSA-1707 biofilms. The settings on record: 5 μM; previous work ref 39; cited from earlier work.
For experiment [2], the system named is six MRSA clinical isolates. Description: MIC assays against MRSA clinical isolates. It is filed as cell-based. The settings on record: Staphylococcus aureus, read-out: MIC against six MRSA clinical isolates.
Experiment [3] has as its system J774 macrophages. The experiment in a line: Alamar Blue cytotoxicity, J774 macrophages. It is filed as cell-based. The following applies: IC50 J774 MΦ and HepG2 vs MIC against MRSA, MRSE, VRE strains.
For experiment [4], the system named is MRSA, MRSE, and VRE strains. The experiment in a line: MIC summarised across several Gram-positive strains.
Experiment [5] relates to iron uptake genes isdB, sfaA, sbnC, MW0695 in MRSA-1707 biofilms. The experiment in a line: RT-qPCR of iron uptake genes in MRSA biofilms. The following applies: established biofilms, 4 h, 1 μM or 1/10 × MBEC.
For experiment [6], the system named is M. tuberculosis H37Ra (ATCC 25177). Description: MIC assay for Mtb H37Ra. It is filed as cell-based. The following applies: Mycobacterium tuberculosis, ATCC25177|H37RA, 168 h, read-out: MIC Mtb H37Ra.
Experiment [7] relates to VRE 700221 (E. faecium ATCC 700221). The experiment in a line: MIC broth microdilution, VRE 700221. The following applies: 16 h.
Experiment [8] has as its system MRSE 35984 biofilms. Description: Calgary biofilm device. The following applies: Staphylococcus epidermidis, read-out: MRSE 35984 MBC.

Molecules are shown by their SMILES. ≈ marks a conversion by molar mass, not a printed value. Entries after “also recorded” stand apart in the source; their conditions may differ.

On to `O=C(O)CN(CCN(CC(=O)O)CC(=O)O)CC(=O)O` [EDTA, ethylenediaminetetraacetic acid], for which the “upregulation of iron uptake genes” value in experiment [1] is recorded as “do not upregulate”.

Consider `Oc1c(Br)cc(Br)c2nc3ccccc3nc12` [HP 3], for which, in experiment [2], the MIC is 1.25 to 2.5 µM (≈ 0.443 to 0.885 µg/mL).

Turning to `Cc1cccc2nc3c(O)c(Br)c(Cl)c(Br)c3nc12` [HP 29, 2,4-Dibromo-3-chloro-6-methylphenazin-1-ol], the MIC in experiment [2] is 0.06 to 0.12 µM (≈ 0.0241 to 0.0483 µg/mL). Moreover, the “selectivity index (SI)” value in experiment [3] is on record as over 2000. The “MICs against all Gram-positive strains in the panel” value in experiment [4] was “submicromolar”. Further, the “induction of iron starvation (upregulation of iron uptake genes)” value in experiment [5] is “induce rapid iron starvation; also recorded: rapidly induce iron starvation”.

For `Oc1c(Br)c(Cl)c(Br)c2nc3c(Cl)cc(Cl)cc3nc12` [HP 34, 2,4-Dibromo-3,6,8-trichlorophenazin-1-ol], in experiment [2], the minimal inhibitory concentration (MIC) was in the range of 0.47 to 1.25 µM (≈ 0.215 to 0.572 µg/mL).

Regarding `CCSc1c(Br)c(O)c2nc3cccc(C)c3nc2c1Br` [HP 45, 2,4-Dibromo-3-(ethylthio)-6-methylphenazin-1-ol], the MIC in experiment [2] fell in the range of 0.31 to 0.63 µM (≈ 0.133 to 0.27 µg/mL).

With `c1ccc(CN(CCN(Cc2ccccn2)Cc2ccccn2)Cc2ccccn2)nc1` [TPEN, N,N,N′,N′-tetrakis(2-pyridinylmethyl)-1,2-ethanediamine], in experiment [1], the “upregulation of iron uptake genes” value was “do not upregulate”.

With `CN[C@@H]1[C@H](O[C@H]2[C@H](O[C@H]3[C@H](O)[C@@H](O)[C@H](N=C(N)N)[C@@H](O)[C@@H]3N=C(N)N)O[C@@H](C)[C@]2(O)C=O)O[C@@H](CO)[C@H](O)[C@H]1O` [streptomycin], in experiment [6], the MIC turned out to be 1.32 µM (≈ 0.768 µg/mL).

For `CN[C@H](CC(C)C)C(=O)N[C@H]1C(=O)N[C@@H](CC(N)=O)C(=O)N[C@H]2C(=O)N[C@H]3C(=O)N[C@H](C(=O)N[C@H](C(=O)O)c4cc(O)cc(O)c4-c4cc3ccc4O)[C@H](O)c3ccc(c(Cl)c3)Oc3cc2cc(c3O[C@@H]2O[C@H](CO)[C@@H](O)[C@H](O)[C@H]2O[C@H]2C[C@](C)(N)[C@H](O)[C@H](C)O2)Oc2ccc(cc2Cl)[C@H]1O` [vancomycin], the “MIC VRE 700221” value in experiment [7] (BHI, 37 °C, d lowest test concentration) was over 100 µM. In addition, in experiment [7] (Enterococcus, ATCC700221|VRE, read-out: MIC VRE 700221), the MIC is over 100 µM. In addition, in experiment [8], the MBC is 3 µM (≈ 4.35 µg/mL).
